Test results as given in patent publication US20060159776A1, “Compositions comprising components coated with a liquid impermeable but gas permeable layer, use thereof for treating cutaneous and other exocrine gland diseases” (priority 2003, published 2006).
“Also recorded” adds a separate entry of the source.

System: adults suffering from diabetes type 2
Assay: Four-week substitution trial in adults with diabetes type 2 controlled by metformin alone

Structure (SMILES): CN(C)C(=N)N=C(N)N [metformin, Metformin]
- fasting plasma glucose (FPG) control (before the trial, on regular metformin 500 mg twice daily to 850 mg three times daily, five adults): below 8 mmol/l
- side-effects of taking metformin (regular metformin, metallic taste three of five, abdominal discomfort all five): metallic taste in the mouth occasionally; also recorded: occasional abdominal discomfort
